In patent publication US20110319360A1, “Method of including apoptosis/Cell death in leukemia cell using a purine nucleoside analogue” (U.S. Department of Veterans Affairs, priority 2010, published 2011):
Read-outs that look alike come from different tables or passages of the source.

Tests used:
[1] = test system: normal PBMCs; experiment: MTS cytotoxicity assay on PBMCs from normal donors; format: cell-based, human; settings: for EC50: Homo sapiens, PBMC, read-out: ED50 (μM), PBMC
Procedure: For toxicity studies involving normal blood cells, normal volunteers were enrolled in an IRB-approved protocol for blood collection. PBMCs were isolated from heparin-anticoagulated blood by ficoll-Hypaque density gradient centrifugation.
(§1) 2.5×10^5 CLL cells were incubated in triplicate or quadruplicate in a 96-well tissue culture plate (Costar, Corning, N.Y.) with serial dilutions of LMP-420, fludarabine, and/or recombinant TNF-alpha (R&D Systems, Minneapolis, Minn.) in Hybridoma serum free media (SFM) (GIBCO/Invitrogen, Carlsbad, Calif.) containing 10% heat-inactivated fetal bovine serum (FBS) (Sigma) at 37° C. with 5% CO2. After 72 hours, 20 μl CellTiter 96® AQueous One Solution Cell Proliferation Assay (Promega, Madison, Wis.) MTS (3-(4,5 dimethylthiazol-2-yl)-5-(3-carboxymethoxyphenyl-2-(4-sulfophenyl)-2H-tetrazolium) reagent was added to each well and the absorbance was read at 490 nm on a Thermomax microplate reader (Molecular Devices, Sunnyvale, Calif.). We calculated fractional cytotoxicity as performed previously (Reference 12), comparing absorbance at 490 nm from treated cells to control cells incubated with media alone.
(§2) The concentration effective at killing 50% of CLL cells compared to media alone (ED50) was calculated when 50% fractional cytotoxicity occurred within the range of serial dilutions tested (Reference 12). If the ED50 fell below or above this range, it was set to either the lowest or the highest concentration tested, respectively, for the purposes of statistical analyses and graphical representation.

[2] = test system: normal PBMCs; experiment: [3H]-thymidine proliferation assay, mitogen-stimulated normal PBMCs; format: cell-based, human; settings: Homo sapiens, PBMC, 96 h
Procedure: CLL cells (2×10^5 cells/well) were cultured in quadruplicate in a volume of 200 μl in 96-well tissue culture plates for 96 hours with 1 μM CpG-oligodeoxynucleotides (ODN) DSP30 (Reference 14) (Midland Certified Reagent Company, Midland, Tex.) and 100 units/ml IL-2 (R&D Systems) in the presence or absence of drug. As controls, cells were treated with media without DSP30/IL-2. Cells were incubated with 1 μCi/well [methyl-^3H]-thymidine (specific activity 6.7 Ci/mmol, PerkinElmer, Waltham, Mass., USA) for 14-18 hours prior to harvesting onto glass-fiber filters using a semi-automated cell harvester. [^3H]-thymidine incorporation was measured as counts per minute (cpm) using a Tri-Carb 2100 timed-resolved liquid scintillation counter (PerkinElmer). The same protocol was utilized for proliferation assays with normal PBMCs, with the exception that growth was stimulated by treatment with 10 μg/ml Phytohemagglutinin-P (PHA, Sigma), 5 μg/ml concanavalin A (ConA, Sigma), 2 μg/ml pokeweed mitogen (PWM, Sigma), 25 ng/ml muromonab-CD3 (α-CD3, Ortho Pharmaceuticals, Raritan, N.J.), or 50 ng/ml phorbol myristate acetate (PMA, Sigma) plus 1 μg/ml ionomycin (iono, Sigma) for 96 hours. Proliferation is reported as percent of control (drug-treated cpm/control-treated cpm×100%).

[3] = test system: CD34+ hematopoietic progenitor cells (erythroid colonies); experiment: Colony formation assay, erythroid colonies; format: cell-based, human; settings: Homo sapiens, 336 h, read-out: mean IC50 for normal erythroid colony formation
Procedure: (§3) CD34^+ hematopoietic progenitor cells were isolated from PBMCs from two healthy donors using the CD34 Microbead Kit (Miltenyi Biotec, Auburn, Calif.). 10^3 CD34^+-enriched cells were cultured in a 35 mm culture plate (1000 cells/plate) with or without LMP-420 or fludarabine in 1.1 ml Human Methylcellulose Complete Media (R&D Systems) according to the manufacturer's protocol. Plates were incubated for 14 days at 37° C. in humidified 5% CO2. Each treatment group was tested in triplicate. Colonies on plates were scored by two independent observers, blinded to the treatment groups, by microscopic evaluation under 10× and 20× power. Colonies were categorized as being of either erythroid or myeloid lineage.

[4] = test system: CLL cells; experiment: MTS cytotoxicity assay on primary CLL cells; format: cell-based; settings: Homo sapiens, CLL cell, 72 h
Procedure: On the same day that heparin-anticoagulated venous blood was collected from participants, CLL cells were purified by methods described previously (Reference 11). Briefly, CLL cells were isolated from whole blood using the RosetteSep® B-cell enrichment cocktail (Stem Cell Technologies, Vancouver, BC, Canada) together with ficoll-Hypaque density gradient centrifugation. This method yielded CLL cell purity of greater than 95% CD5^+CD19^+ B-cells.
as §1, §2

[5] = test system: CD3-positive T-cell; experiment: Annexin V apoptosis of normal T-lymphocytes in PBMCs; format: cell-based, human; settings: 72 hours
Procedure: (§4) PBMCs were cultured at 10^6 cells/ml in a 12-well tissue culture plate. Cells were treated for 72 hours with vehicle control or drug for 72 hours, then harvested as above for staining. PBMCs were resuspended at 2×10^5 cells/tube in 100 μl buffer (HBSS, 0.5% bovine serum albumin, 0.1% sodium azide) and incubated for 30 min with CD3-FITC or CD19-FITC antibodies according to the manufacturer's protocol (BD Biosciences). Cells were then incubated with PE-annexin V and 7-AAD (BD Biosciences) in annexin V binding buffer (BD Biosciences) for 15 minutes prior to analysis of apoptosis on the Guava EasyCyte™ Plus system.

[6] = test system: CD34+ hematopoietic progenitor cells (myeloid colonies); experiment: Colony formation assay, myeloid colonies; format: cell-based, human; settings: Homo sapiens, 336 h, read-out: mean IC50 for normal myeloid colony formation
Procedure: as §3

[7] = test system: CD19-positive B-cell; experiment: Annexin V apoptosis of normal B-lymphocytes in PBMCs; format: cell-based, human; settings: 72 hours
Procedure: as §4

[8] = read-out: IC50 for suppression of mitogen-induced proliferation, Con A, 96 hours
[9] = read-out: IC50 for suppression of mitogen-induced proliferation, PHA, 96 hours
[10] = read-out: IC50 for suppression of mitogen-induced proliferation, PMA/Iono, 96 hours
[11] = read-out: IC50 for suppression of mitogen-induced proliferation, PWM, 96 hours
[12] = read-out: IC50 for suppression of mitogen-induced proliferation, α-CD3, 96 hours
[13] = Con A, 96 hours, read-out: IC50 for suppression of mitogen-induced proliferation
[14] = PWM, 96 hours, read-out: IC50 for suppression of mitogen-induced proliferation
[15] = mean, PBMCs from healthy blood donors (n = 3-6)

Row | Molecule | Therapeutic Index (PBMC ED50/CLL ED50) [1] | IC50 [2, 8] | IC50 [2, 9] | IC50 [2, 10] | IC50 [2, 11] | IC50 [2, 12] | EC50 [1] | IC50 [2, 13] | IC50 [2, 14] | EC50 [1, 15] | other results
1 | 4-hydroperoxycyclophosphamide [Cyclophosphamide/4-HC] | 1.7 |  |  |  |  |  |  |  |  |  | 
2 | Cn1c(CCCC(=O)O)nc2cc(N(CCCl)CCCl)ccc21 [Bendamustine, bendamustine] | 29.2 | 16 µM | 17 µM | 35 µM | 14 µM | 20 µM | 146 µM |  |  |  | 
3 | O=C(O)CCCc1ccc(N(CCCl)CCCl)cc1 [Chlorambucil] | 22.6 | 12 µM | 11 µM | 7 µM | 7.5 µM | 12.5 µM | 67.7 µM |  |  |  | 
4 | Nc1nc(Cl)nc2c1ncn2[C@H]1C[C@H](O)[C@@H](CO)O1 [Cladribine, cladribine] | 10 |  |  |  |  |  |  | 0.15 µM | 0.1 µM | 0.1 µM | 
5 | Nc1nc(F)nc2c1ncn2[C@@H]1O[C@H](COP(=O)(O)O)[C@@H](O)[C@@H]1O [Fludarabine, fludarabine phosphate, reference compound] | 2.6 |  |  |  |  |  |  | < 3 µM | < 3 µM | 3.1 µM | IC50 [3]: 5 µM; EC50 ([4]; read-out: Median ED50 of fludarabine, 62 nM of LMP-420 added, 72 hours, 21 patient samples): 0.252 µM; EC50 ([4]; read-out: Median ED50 of fludarabine, 250 nM of LMP-420 added, 72 hours, 21 patient samples): 0.125 µM; EC50 ([4]; read-out: Median ED50 of fludarabine, no LMP-420 added, 72 hours, 21 patient samples): 0.978 µM; apoptosis in normal T-cells ([5]; 0.4 μM): caused significant apoptosis; average percent drug-specific apoptosis, T-cells ([5]; 1 μM, n=3): 81%; IC50 ([2]; PHA, 96 hours, read-out: IC50 for suppression of mitogen-induced proliferation): < 3 µM; IC50 ([2]; PMA/Iono, 96 hours, read-out: IC50 for suppression of mitogen-induced proliferation): 0.8 µM; IC50 ([2]; α-CD3, 96 hours, read-out: IC50 for suppression of mitogen-induced proliferation): < 3 µM; IC50 [6]: 1 µM; apoptosis in normal B-cells ([7]; 0.4 μM): caused significant apoptosis; average percent drug-specific apoptosis, B-cells ([7]; 1 μM, n=3): 70%
